Test results taken from BindingDB's records for patent WO2022115301 (MERCK SHARP & DOHME LLC, 2022).
pEC50: −log10 of the molar value.

Each compound was assayed against T1, Ceramide glucosyltransferase (Homo sapiens, UniProt Q16739) (assay: UDP-Glo Glucosylceramide Synthase Biochemical Assay).
T1 sequence (Q16739 whole entry): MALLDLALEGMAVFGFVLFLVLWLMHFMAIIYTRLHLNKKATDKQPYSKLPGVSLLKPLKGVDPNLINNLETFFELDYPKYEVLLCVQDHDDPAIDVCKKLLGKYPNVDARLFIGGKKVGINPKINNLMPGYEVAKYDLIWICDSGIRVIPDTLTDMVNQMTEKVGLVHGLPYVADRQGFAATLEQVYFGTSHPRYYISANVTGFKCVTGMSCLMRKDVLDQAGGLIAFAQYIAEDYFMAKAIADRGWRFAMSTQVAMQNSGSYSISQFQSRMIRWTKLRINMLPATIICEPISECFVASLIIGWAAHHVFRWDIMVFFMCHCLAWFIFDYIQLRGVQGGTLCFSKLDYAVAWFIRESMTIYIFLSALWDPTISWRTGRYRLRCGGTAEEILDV
Experimental: Using Promega s UDP-Glo Glycosyltransferase assay kit (Promega Corporation, Madison, WI, USA (Promega)), GCS activity was indirectly measured by detecting the amount of UDP produced. An aliquot of GCS enzyme (1.5 µg crude golgi preparation, total protein) and titrated test compound were aliquoted to each well and incubated for 30 minutes at room temperature. […] An equivalent volume of substrate mixture was then added to each well. Following a 20 h incubation at room temperature to allow for GCS turnover of substrate, an equal volume of UDP detection reagent (Promega) was added to each well and incubated for an additional 75 minutes at room temperature to simultaneously convert the accumulated UDP product into ATP and generate light in a luciferase reaction. The generated light was detected using a luminometer. […] luminescence values (RLUs) were normalized to mean min and max effects, as determined on each plate. […] See Levenberg, K., A Method for the Solution of Certain Problems in Least Squares , Quart. Appl.
For `CC(C)(O)[C@@H](C1CC1)N1Cc2cccc(-c3ccc(-c4nnco4)cc3)c2C1=O` [WO2022115301, Example 5], the pEC50 was 7.28.
With `Cn1c(=O)n(C)c2cc(-c3cccc4c3C(=O)N([C@H](C3CC3)C(C)(C)O)C4)ccc21` [WO2022115301, Example 6] the pEC50 was 8.35.
For `CC(C)(O)[C@@H](C1CC1)N1Cc2cccc(-c3ccccc3OCC(F)(F)F)c2C1=O` [WO2022115301, Example 7], the pEC50 was 8.44.
For `COc1cc(C#N)cc(-c2cccc3c2C(=O)N([C@H](C2CC2)C(C)(C)O)C3)c1` [WO2022115301, Example 8], the pEC50 was 8.12.
Compound `Cc1nnc(-c2ccc(-c3cccc4c3C(=O)N([C@H](C3CC3)C(C)(C)O)C4)cc2F)o1` [WO2022115301, Example 9] has a pEC50 of 7.62.
For `COc1cc(Cl)cc(-c2cccc3c2C(=O)N([C@H](C2CC2)C(C)(C)O)C3)c1` [WO2022115301, Example 10], the pEC50 was 8.55.
`Cc1n[nH]c2cc(F)c(-c3cccc4c3C(=O)N([C@H](C3CC3)C(C)(C)O)C4)cc12` [WO2022115301, Example 11] was tested, and the pEC50 was 8.31.
For `Cn1ncc2cc(-c3cccc4c3C(=O)N([C@H](C3CC3)C(C)(C)O)C4)ccc21` [WO2022115301, Example 12], the pEC50 was 7.89.
For `CC(C)(O)[C@@H](C1CC1)N1Cc2cccc(-c3cccc(OCC(F)(F)F)c3)c2C1=O` [WO2022115301, Example 14], the pEC50 was 7.32.
For `Cn1cc(-c2ccc(-c3cccc4c3C(=O)N([C@H](C3CC3)C(C)(C)O)C4)cc2)cn1` [WO2022115301, Example 15], the pEC50 was 8.19.
`CC(C)(O)[C@@H](C1CC1)N1Cc2cccc(-c3cccc4c3OC(F)(F)O4)c2C1=O` [WO2022115301, Example 16] gave a pEC50 of 7.41.
Compound `CC(C)(O)[C@@H](C1CC1)N1Cc2cccc(-c3ccc(-n4nccn4)cc3)c2C1=O` [WO2022115301, Example 17] has a pEC50 of 6.24.
`Cn1cc(-c2ccc(-c3cc(F)cc4c3C(=O)N([C@H](C3CC3)C(C)(C)O)C4)cc2)cn1` [WO2022115301, Example 24] gave a pEC50 of 9.03.
For `CN1Cc2cc(-c3cc(F)cc4c3C(=O)N([C@H](C3CC3)C(C)(C)O)C4)ccc2C1=O` [WO2022115301, Example 25], the pEC50 was 8.04.
